In ChEMBL document CHEMBL1142144, “Semimechanistic pharmacokinetic/pharmacodynamic model for assessment of activity of antibacterial agents from time-kill curve experiments” (2007):
Converted amounts (≈) assume the structure as drawn.

test system: Streptococcus pyogenes; assay: Antibacterial activity against Streptococcus pyogenes M12 by time-kill curve assay; assay type: functional

Q: Which MIC does the source give for `CO/N=C(\C(=O)N[C@@H]1C(=O)N2C(C(=O)O)=C(COC(N)=O)CS[C@H]12)c1ccco1` [CEFUROXIME] here?
A: The MIC was 0.0313 µg/mL (≈ 0.0738 µM).

Q: How did the MIC turn out when `CC[C@H]1OC(=O)[C@H](C)[C@@H](O[C@H]2C[C@@](C)(OC)[C@@H](O)[C@H](C)O2)[C@H](C)[C@@H](O[C@@H]2O[C@H](C)C[C@H](N(C)C)[C@H]2O)[C@](C)(O)C[C@@H](C)C(=O)[C@H](C)[C@@H](O)[C@]1(C)O` [ERYTHROMYCIN] was run?
A: The MIC was 0.125 µg/mL (≈ 0.17 µM).

Q: How did the MIC turn out when `COc1c(N2C[C@@H]3CCCN[C@@H]3C2)c(F)cc2c(=O)c(C(=O)O)cn(C3CC3)c12` [MOXIFLOXACIN] was run?
A: Its MIC is 0.125 µg/mL (≈ 0.311 µM).

Q: For `CC1(C)S[C@@H]2[C@H](NC(=O)Cc3ccccc3)C(=O)N2[C@H]1C(=O)O` [PENICILLIN G], which MIC is on record?
A: The MIC was 0.012 µg/mL (≈ 0.0359 µM).

Q: Which MIC does the source give for `CN[C@H](CC(C)C)C(=O)N[C@H]1C(=O)N[C@@H](CC(N)=O)C(=O)N[C@H]2C(=O)N[C@H]3C(=O)N[C@H](C(=O)N[C@H](C(=O)O)c4cc(O)cc(O)c4-c4cc3ccc4O)[C@H](O)c3ccc(c(Cl)c3)Oc3cc2cc(c3O[C@@H]2O[C@H](CO)[C@@H](O)[C@H](O)[C@H]2O[C@H]2C[C@](C)(N)[C@H](O)[C@H](C)O2)Oc2ccc(cc2Cl)[C@H]1O` [VANCOMYCIN] here?
A: The MIC was 0.25 µg/mL (≈ 0.173 µM).
